We go through 14 compounds from ChEMBL document CHEMBL6127079, “Design and synthesis of spiro[pyrrolidine-3,3'-quinoline]-2,2'-dione derivatives as novel antifungal agents targeting chitin synthase” (Eur J Med Chem, 2024).

Values after ≈ are worked out from the molar mass of the structure shown.

One may read the MIC as the smallest concentration in the dilution series that meets the test's criterion for growth inhibition. For orientation: IC50 means the concentration that inhibits the measured activity by half. The inhibition is the share of the control response that was lost under treatment.

One test relates to Aspergillus flavus. As to the kind of experiment: Antifungal activity against Aspergillus flavus ATCC 16870 assessed as inhibition of growth incubated for 24 hrs by two-fold serial dilution method. Format: functional.
For a further test, the system named is Aspergillus fumigatus. Kind of test: Antifungal activity against Aspergillus fumigatus GIMCC 3.19 assessed as inhibition of growth incubated for 24 hrs by two-fold serial dilution method. Format: functional.
A short description of test [1]: Inhibition of chitin synthase extracted from Candida tropicalis ATCC 750 using UDP-GlcNAc as substrate assessed as inhibition rate by TMB based microplate analyzer relative to control.
The subject of another test is Candida albicans. As to the kind of experiment: Antifungal activity against Candida albicans ATCC 76615 assessed as inhibition of growth incubated for 24 hrs by two-fold serial dilution method. Format: functional.
The subject of the next test is Candida tropicalis. As to the kind of experiment: Inhibition of chitin synthase extracted from Candida tropicalis ATCC 750 using UDP-GlcNAc as substrate assessed as inhibition rate at 300 ug/ml by TMB based microplate analyzer relative to control. The settings on record: dose 300.0 µg/ml.
The test system of the next test is Cryptococcus neoformans. Kind of test: Antifungal activity against Cryptococcus neoformans ATCC 32719 assessed as inhibition of growth incubated for 24 hrs by two-fold serial dilution method. Format: functional.

Take `Cc1ccc(NC(=O)C2CCN(CC(=O)Nc3ccc4c(c3)NC(=O)C3(CCNC3=O)C4)CC2)cc1` (racemic): the MIC with Aspergillus flavus is 64 µg/mL (≈ 131 µM); with Aspergillus fumigatus it was 128 µg/mL (≈ 261 µM); in the test on Candida albicans, 32 µg/mL (≈ 65.4 µM); in the test with Cryptococcus neoformans it was 32 µg/mL (≈ 65.4 µM). Further, in test [1], the IC50 was 286 µM. Besides, the inhibition in the test with Candida tropicalis was 45.1%.
Take `CCCNC(=O)C1CCN(CC(=O)Nc2ccc3c(c2)NC(=O)C2(CCNC2=O)C3)CC1` (racemic): the MIC stood at 128 µg/mL (≈ 290 µM) with Aspergillus flavus, 256 µg/mL (≈ 580 µM) with Aspergillus fumigatus, 128 µg/mL (≈ 290 µM) with Candida albicans and 512 µg/mL (≈ 1160 µM) with Cryptococcus neoformans. Besides, the inhibition in the test on Candida tropicalis turned out to be 22.5%.
For the compound `O=C(CN1CCC(C(=O)Nc2nccs2)CC1)Nc1ccc2c(c1)NC(=O)C1(CCNC1=O)C2` (racemic), the MIC came out at 32 µg/mL (≈ 66.3 µM) in the test on Aspergillus flavus, 256 µg/mL (≈ 530 µM) with Aspergillus fumigatus, 8 µg/mL (≈ 16.6 µM) in the test with Candida albicans and 512 µg/mL (≈ 1060 µM) in the test with Cryptococcus neoformans. Moreover, the IC50 in test [1] was determined as 157 µM. Moreover, in the test with Candida tropicalis, the inhibition was found to be 73.9%.
`COc1ccc(NC(=O)/C=C/C(=O)Nc2ccc3c(c2)NC(=O)C2(CCNC2=O)C3)cc1` (racemic): the MIC with Aspergillus flavus was 32 µg/mL (≈ 73.7 µM); in the test with Aspergillus fumigatus, 64 µg/mL (≈ 147 µM); in the test with Candida albicans, 64 µg/mL (≈ 147 µM); in the test on Cryptococcus neoformans, 32 µg/mL (≈ 73.7 µM). Further, the inhibition in the test on Candida tropicalis worked out at 49.3%.
Regarding `O=C(CN1CCC(C(=O)Nc2ccc(Cl)cc2)CC1)Nc1ccc2c(c1)NC(=O)C1(CCNC1=O)C2` (racemic), the MIC in the test with Aspergillus flavus was 16 µg/mL (≈ 31.4 µM); in the test with Aspergillus fumigatus, 16 µg/mL (≈ 31.4 µM); with Candida albicans it was 64 µg/mL (≈ 125 µM); in the test on Cryptococcus neoformans it was 32 µg/mL (≈ 62.7 µM). For the same compound, the IC50 in test [1] amounted to 166 µM. Besides, in the test on Candida tropicalis, the inhibition came to 41.3%.
With `O=C(/C=C/C(=O)Nc1ccc2c(c1)NC(=O)C1(CCNC1=O)C2)Nc1ccc(Cl)cc1` (racemic), the MIC was 32 µg/mL (≈ 72.9 µM) with Aspergillus flavus, 32 µg/mL (≈ 72.9 µM) with Aspergillus fumigatus, 32 µg/mL (≈ 72.9 µM) in the test with Candida albicans and 64 µg/mL (≈ 146 µM) with Cryptococcus neoformans. The IC50 in test [1] is 496 µM. Further, in the test on Candida tropicalis, the inhibition was 56.3%.
With `CC(C)NC(=O)/C=C/C(=O)Nc1ccc2c(c1)NC(=O)C1(CCNC1=O)C2` (racemic), the MIC in the test with Aspergillus flavus is 256 µg/mL (≈ 691 µM); in the test with Aspergillus fumigatus, 64 µg/mL (≈ 173 µM); in the test with Candida albicans, 128 µg/mL (≈ 346 µM); in the test on Cryptococcus neoformans, 128 µg/mL (≈ 346 µM). In addition, in the test with Candida tropicalis, the inhibition was determined as 34.6%.
With `Cc1ccc(NC(=O)C2CCN(CC(=O)Nc3ccc4c(c3)NC(=O)C3(CCNC3=O)C4)CC2)cc1C` (racemic), the MIC in the test on Aspergillus flavus turned out to be 32 µg/mL (≈ 63.5 µM); in the test with Aspergillus fumigatus, 64 µg/mL (≈ 127 µM); in the test with Candida albicans it was 32 µg/mL (≈ 63.5 µM); in the test on Cryptococcus neoformans it was 64 µg/mL (≈ 127 µM). For the same compound, the inhibition in the test on Candida tropicalis was found to be 42.3%.
Regarding `O=C(CN1CCC(C(=O)Nc2ccccc2)CC1)Nc1ccc2c(c1)NC(=O)C1(CCNC1=O)C2` (racemic), the MIC in the test on Aspergillus flavus was 32 µg/mL (≈ 67.3 µM); in the test with Aspergillus fumigatus, 128 µg/mL (≈ 269 µM); with Candida albicans, 64 µg/mL (≈ 135 µM); in the test on Cryptococcus neoformans, 64 µg/mL (≈ 135 µM). Further, the inhibition in the test on Candida tropicalis was 35.8%.
On to `O=C(/C=C/C(=O)Nc1ccc2c(c1)NC(=O)C1(CCNC1=O)C2)Nc1ccc(F)c(Cl)c1` (racemic), for which the MIC came to 64 µg/mL (≈ 140 µM) in the test on Aspergillus flavus, 128 µg/mL (≈ 280 µM) in the test on Aspergillus fumigatus, 32 µg/mL (≈ 70 µM) in the test on Candida albicans and 32 µg/mL (≈ 70 µM) in the test on Cryptococcus neoformans. Further, the inhibition in the test on Candida tropicalis was determined as 48.7%.
Regarding `CCCNC(=O)/C=C/C(=O)Nc1ccc2c(c1)NC(=O)C1(CCNC1=O)C2` (racemic), the MIC with Aspergillus flavus was 128 µg/mL (≈ 346 µM); in the test with Aspergillus fumigatus, 64 µg/mL (≈ 173 µM); with Candida albicans it was 128 µg/mL (≈ 346 µM); in the test on Cryptococcus neoformans it was 128 µg/mL (≈ 346 µM). Moreover, in the test with Candida tropicalis, the inhibition was determined as 36.9%.
`CCCN(CCC)C(=O)/C=C/C(=O)Nc1ccc2c(c1)NC(=O)C1(CCNC1=O)C2` (racemic): the MIC in the test with Aspergillus flavus is 128 µg/mL (≈ 310 µM); in the test on Aspergillus fumigatus it was 256 µg/mL (≈ 621 µM); in the test with Candida albicans, 128 µg/mL (≈ 310 µM); with Cryptococcus neoformans it was 128 µg/mL (≈ 310 µM). Also, the inhibition in the test on Candida tropicalis is 26.3%.
For the compound `COc1ccc(NC(=O)C2CCN(CC(=O)Nc3ccc4c(c3)NC(=O)C3(CCNC3=O)C4)CC2)cc1` (racemic), the MIC was determined as 32 µg/mL (≈ 63.3 µM) in the test on Aspergillus flavus, 64 µg/mL (≈ 127 µM) with Aspergillus fumigatus, 128 µg/mL (≈ 253 µM) in the test with Candida albicans and 64 µg/mL (≈ 127 µM) in the test on Cryptococcus neoformans. The inhibition with Candida tropicalis was 75.9%.
As to `O=C(/C=C/C(=O)Nc1ccc2c(c1)NC(=O)C1(CCNC1=O)C2)Nc1ccc(F)cc1` (racemic), the MIC in the test with Aspergillus flavus is 32 µg/mL (≈ 75.8 µM); in the test with Aspergillus fumigatus, 64 µg/mL (≈ 152 µM); with Candida albicans it was 128 µg/mL (≈ 303 µM); with Cryptococcus neoformans, 32 µg/mL (≈ 75.8 µM). Moreover, the inhibition in the test on Candida tropicalis was 46.8%.
